Type in all cases: in vitro ADME
For data set [1], the target named is T1, CYP2C19 (Homo sapiens, UniProt P33261).
T1 construct: enzyme, pooled human hepatic microsome 0.2 mg protein/mL; from tissue; host or cells: pooled human liver microsomes
In words: CYP inhibition assay, mephenytoin 4'-hydroxylation. The note with it: pooled human liver microsomes, probe S-mephenytoin (4'-hydroxylation), 50 μmol/L, pooled human hepatic microsome. The method, then:
(§1) Using commercially available pooled human hepatic microsome, and employing, as markers, 7-ethoxyresorufin O-deethylation (CYP1A2), tolbutamide methyl-hydroxylation (CYP2C9), mephenytoin 4′-hydroxylation (CYP2C19), dextromethorphan O-demethylation (CYP2D6), and terfenedine hydroxylation (CYP3A4) as typical substrate metabolism reactions of human main five CYP enzyme forms (CYP1A2, 2C9, 2C19, 2D6, 3A4), an inhibitory degree of each metabolite production amount by a test compound was assessed.
(§2) The reaction conditions were as follows: substrate, 0.5 μmol/L ethoxyresorufin (CYP1A2), 100 μmol/L tolbutamide (CYP2C9), 50 μmol/L S-mephenytoin (CYP2C19), 5 μmol/L dextromethorphan (CYP2D6), 1 μmol/L terfenedine (CYP3A4); reaction time, 15 minutes; reaction temperature, 37° C.; enzyme, pooled human hepatic microsome 0.2 mg protein/mL; test drug concentration, 1, 5, 10, 20 μmol/L (four points).
(§3) Each five kinds of substrates, human hepatic microsome, and a test drug in 50 mmol/L Hepes buffer as a reaction solution was added to a 96-well plate as the composition as described above, NADPH, as a cofactor was added to initiate metabolism reactions as markers and, after the incubation at 37° C. for 15 minutes, a methanol/acetonitrile=1/1 (v/v) solution was added to stop the reaction. After the centrifugation at 3000 rpm for 15 minutes, resorufin (CYP1A2 metabolite) in the supernatant was quantified by a fluorescent multilabel counter and tolbutamide hydroxide (CYP2C9 metabolite), mephenytoin 4′ hydroxide (CYP2C19 metabolite), dextrorphan (CYP2D6 metabolite), and terfenadine alcohol (CYP3A4 metabolite) were quantified by LC/MS/MS.
(§4) A reaction system containing only DMSO which is a solvent for dissolving a drug was adopted as a control (100%), and the remaining activity (%) was calculated, then IC50 was calculated by reverse presumption with a logistic model using a concentration and an inhibition rate.
(In general: Liver microsomes are vesicles of endoplasmic reticulum, rich in cytochrome P450 enzymes.)

The target of data set [2] is T2, CYP2D6 (Homo sapiens, UniProt P10635).
T2 construct: enzyme, pooled human hepatic microsome 0.2 mg protein/mL; from tissue; host or cells: pooled human liver microsomes
T2 sequence (P10635 whole entry): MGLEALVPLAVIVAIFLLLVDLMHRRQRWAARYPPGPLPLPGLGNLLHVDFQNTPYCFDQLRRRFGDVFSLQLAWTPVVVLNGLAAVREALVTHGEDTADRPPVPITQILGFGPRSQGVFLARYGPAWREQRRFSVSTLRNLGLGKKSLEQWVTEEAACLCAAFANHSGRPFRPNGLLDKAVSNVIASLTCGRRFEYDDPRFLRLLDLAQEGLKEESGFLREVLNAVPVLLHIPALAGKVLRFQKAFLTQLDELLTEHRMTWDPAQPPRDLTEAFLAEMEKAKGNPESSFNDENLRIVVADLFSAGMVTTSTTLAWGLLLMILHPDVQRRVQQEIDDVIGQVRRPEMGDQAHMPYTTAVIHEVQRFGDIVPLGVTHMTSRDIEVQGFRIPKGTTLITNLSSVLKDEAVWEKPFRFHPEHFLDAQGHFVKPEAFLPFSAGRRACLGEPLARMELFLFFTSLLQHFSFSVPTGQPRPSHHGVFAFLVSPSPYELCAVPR
In words: CYP inhibition assay, dextromethorphan O-demethylation. The conditions noted are these: pooled human liver microsomes, probe dextromethorphan (O-demethylation), 5 μmol/L, pooled human hepatic microsome. As to the method: as §1, §2, §3, §4

Data set [3] can be described thus: Metabolism stability test, human liver microsomes. The note with it: 30 minutes, 37° C., amount at 0 minute = 100%. The method, then: Commercially available pooled human hepatic microsomes and a test compound were reacted for a constant time, then a remaining rate was calculated by comparing a reacted sample and an unreacted sample, thereby a degree of metabolism of the test compound in liver was assessed. A reaction was performed (oxidative reaction) at 37° C. for 0 minute or 30 minutes in the presence of 1 mmol/L NADPH in 0.2 mL of a buffer (50 mmol/L Tris-HCl, pH 7.4, 150 mmol/L potassium chloride, 10 mmol/L magnesium chloride) containing 0.5 mg protein/mL of human liver microsomes. After the reaction, 50 μl, of the reaction solution was added to 100 μL of a methanol/acetonitrile=1/1 (v/v), mixed and centrifuged at 3000 rpm for 15 minutes. The test compound in the supernatant was quantified by LC/MS/MS, and a remaining amount of the test compound after the reaction was calculated, letting a compound amount at 0 minute reaction time to be 100%. Hydrolysis reaction was performed in the absence of NADPH and glucuronidation reaction was in the presence of 5 mM UDP-glucuronic acid in place of NADPH, followed by similar operations.

Data set [4] concerns the target T3, CYP3A4 (Homo sapiens, UniProt P08684).
T3 construct: enzyme, pooled human hepatic microsome 0.2 mg protein/mL; from tissue; host or cells: pooled human liver microsomes
Nature of the data set: CYP inhibition assay, terfenedine hydroxylation. The note with it: pooled human liver microsomes, probe terfenedine (hydroxylation), 1 μmol/L, pooled human hepatic microsome. As to the method: as §1, §2, §3, §4

The target in data set [5] is T4, CYP1A2 (Homo sapiens, UniProt P05177).
T4 construct: enzyme, pooled human hepatic microsome 0.2 mg protein/mL; from tissue; host or cells: pooled human liver microsomes
T4 sequence (P05177 1-516): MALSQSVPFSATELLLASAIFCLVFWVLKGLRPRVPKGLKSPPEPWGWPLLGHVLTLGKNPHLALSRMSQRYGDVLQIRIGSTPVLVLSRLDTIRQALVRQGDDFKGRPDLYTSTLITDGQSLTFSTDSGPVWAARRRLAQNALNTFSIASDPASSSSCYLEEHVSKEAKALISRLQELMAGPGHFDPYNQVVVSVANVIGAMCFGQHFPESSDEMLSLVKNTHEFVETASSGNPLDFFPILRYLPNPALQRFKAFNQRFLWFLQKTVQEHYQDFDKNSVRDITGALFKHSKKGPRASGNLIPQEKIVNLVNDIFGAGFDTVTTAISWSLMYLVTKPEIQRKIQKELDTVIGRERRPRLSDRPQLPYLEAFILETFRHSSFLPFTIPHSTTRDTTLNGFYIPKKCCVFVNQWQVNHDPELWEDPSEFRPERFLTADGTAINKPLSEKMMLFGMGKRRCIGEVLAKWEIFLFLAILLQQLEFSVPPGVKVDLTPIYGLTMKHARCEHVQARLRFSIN
In words: CYP inhibition assay, 7-ethoxyresorufin O-deethylation. The conditions noted are these: pooled human liver microsomes, probe 7-ethoxyresorufin (O-deethylation), 0.5 μmol/L, pooled human hepatic microsome. As to the method: as §1, §2, §3, §4

T3 sequence (P08684 whole entry): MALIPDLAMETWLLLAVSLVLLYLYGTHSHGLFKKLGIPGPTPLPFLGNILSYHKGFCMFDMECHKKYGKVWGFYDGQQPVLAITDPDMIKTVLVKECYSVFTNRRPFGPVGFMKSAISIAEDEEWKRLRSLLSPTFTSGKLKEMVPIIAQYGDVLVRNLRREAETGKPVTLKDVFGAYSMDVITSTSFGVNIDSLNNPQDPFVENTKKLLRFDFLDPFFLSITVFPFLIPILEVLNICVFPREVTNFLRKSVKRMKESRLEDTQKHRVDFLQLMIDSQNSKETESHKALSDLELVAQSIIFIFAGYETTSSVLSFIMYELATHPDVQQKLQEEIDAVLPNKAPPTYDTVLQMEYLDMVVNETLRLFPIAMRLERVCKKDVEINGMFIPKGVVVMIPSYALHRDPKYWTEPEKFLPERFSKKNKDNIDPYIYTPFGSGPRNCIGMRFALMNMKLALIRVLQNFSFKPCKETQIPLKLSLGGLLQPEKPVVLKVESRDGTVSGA
T1 sequence (P33261 whole entry): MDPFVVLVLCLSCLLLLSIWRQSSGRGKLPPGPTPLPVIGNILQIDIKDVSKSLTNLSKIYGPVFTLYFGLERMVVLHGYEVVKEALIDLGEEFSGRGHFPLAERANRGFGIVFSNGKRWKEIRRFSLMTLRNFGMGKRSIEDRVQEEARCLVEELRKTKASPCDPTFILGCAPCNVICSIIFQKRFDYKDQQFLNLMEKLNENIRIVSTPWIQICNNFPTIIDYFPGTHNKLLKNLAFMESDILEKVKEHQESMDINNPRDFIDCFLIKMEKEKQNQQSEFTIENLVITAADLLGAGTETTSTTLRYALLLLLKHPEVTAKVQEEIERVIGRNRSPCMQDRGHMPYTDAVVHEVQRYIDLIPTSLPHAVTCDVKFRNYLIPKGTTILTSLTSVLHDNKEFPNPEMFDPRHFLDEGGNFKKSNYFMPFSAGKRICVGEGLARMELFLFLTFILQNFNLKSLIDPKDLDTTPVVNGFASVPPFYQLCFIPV

By IC50 is commonly meant the concentration that gives 50% inhibition. Higher therefore signals a need for much substance. With `CC(=O)Nc1c(C)c(C(OC(C)(C)C)C(=O)O)c(-c2ccc(C)c(C)c2)c(C)c1-c1ccc(C)c(C)c1` (centres unmarked) [Compound I-6], the 50% inhibitory concentration (IC50) at 15 min in data set [1], in data set [2], in data set [4] and in data set [5] was at least 20 µM throughout. Also, the “remaining amount of compound in liver microsomes of human” value in data set [3] is reported as 79%.

Source of the values: patent publication US9199959B2, “HIV replication inhibitor” (Shionogi & Co., Ltd., priority 2011, dated 2015).
